Reference: US8247211B2, “Glycopeptide antibiotics” (American Cyanamid Company, priority 2001, dated 2012)
Values after ≈ are worked out from the molar mass of the structure shown.

Tests used:
Assay in all cases: In vitro antibacterial evaluation: minimum inhibitory concentration (MIC), broth dilution method
Format in all cases: cell-based
Escherichia coli [1] = system: Escherichia coli
Staphylococcus sp. = conditions: 18 hours at 35° C.
Outline: (§1)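 First, organisms are seeded at 5×10^5 CFU/mL into Muller-Hinton II […]. Next, antibiotic is applied across 64-0.06 μg/mL by broth dilution (NCCLS M7-A2). Finally, the lowest inhibitory concentration is recorded as MIC.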

Enterococcus sp. = system: Enterococcus sp.
Outline: as §1

Escherichia coli [2] = system: Escherichia coli; remark: listed apart in the source
Outline: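 Following NCCLS approved standard M7-A2, compounds are serially diluted from 64 to 0.06 μg/mL in Muller-Hinton II […] and inoculated at 5×10^5 CFU/mL; the MIC is the minimum concentration at which growth is inhibited.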

MIC Escherichia coli (ATCC 25922) (Escherichia coli [1]): >64 µg/mL | MIC Coagulase Negative Staphylococcus (GC 4547) (Staphylococcus sp.): 2 µg/mL (≈ 1.44 µM) | MIC Coagulase Negative Staphylococcus (GC 4547) (Staphylococcus sp.; broth dilution): 2 µg/mL (≈ 1.44 µM) | MIC Coagulase Negative Staphylococcus (GC 4548) (Staphylococcus sp.): 2 µg/mL (≈ 1.44 µM) | MIC Coagulase Negative Staphylococcus (GC 4548) (Staphylococcus sp.; broth dilution): 2 µg/mL (≈ 1.44 µM) | MIC Coagulase Negative Staphylococcus (GC 4549) (Staphylococcus sp.): 2 µg/mL (≈ 1.44 µM) | MIC Coagulase Negative Staphylococcus (GC 4549) (Staphylococcus sp.; broth dilution): 2 µg/mL (≈ 1.44 µM) | MIC Coagulase Negative Staphylococcus (GC 4551) (Staphylococcus sp.): 4 µg/mL (≈ 2.87 µM) | MIC Coagulase Negative Staphylococcus (GC 4551) (Staphylococcus sp.; broth dilution): 4 µg/mL (≈ 2.87 µM) | MIC Staphylococcus aureus (ATCC 29213) (Staphylococcus sp.): 4 µg/mL (≈ 2.87 µM) | MIC Staphylococcus aureus (ATCC 29213) (Staphylococcus sp.; broth dilution): 4 µg/mL (≈ 2.87 µM) | MIC Staphylococcus aureus (GC 1131) (Staphylococcus sp.): 4 µg/mL (≈ 2.87 µM) | MIC Staphylococcus aureus (GC 1131) (Staphylococcus sp.; broth dilution): 4 µg/mL (≈ 2.87 µM) | MIC Staphylococcus aureus (GC 4541) (Staphylococcus sp.): 4 µg/mL (≈ 2.87 µM) | MIC Staphylococcus aureus (GC 4541) (Staphylococcus sp.; broth dilution): 4 µg/mL (≈ 2.87 µM) | MIC Staphylococcus aureus (GC 4542) (Staphylococcus sp.): 4 µg/mL (≈ 2.87 µM) | MIC Staphylococcus aureus (GC 4542) (Staphylococcus sp.; broth dilution): 4 µg/mL (≈ 2.87 µM) | MIC Staphylococcus aureus (GC 4544) (Staphylococcus sp.): 4 µg/mL (≈ 2.87 µM) | MIC Staphylococcus aureus (GC 4544) (Staphylococcus sp.; broth dilution): 4 µg/mL (≈ 2.87 µM) | MIC Staphylococcus aureus (GC 4545) (Staphylococcus sp.): 4 µg/mL (≈ 2.87 µM) | MIC Staphylococcus aureus (GC 4545) (Staphylococcus sp.; broth dilution): 4 µg/mL (≈ 2.87 µM) | MIC Staphylococcus aureus-SMITH (GC 4543) (Staphylococcus sp.): 4 µg/mL (≈ 2.87 µM) | MIC Staphylococcus aureus-SMITH (GC 4543) (Staphylococcus sp.; broth dilution): 4 µg/mL (≈ 2.87 µM) | MIC Enterococcus avium (GC 4558) (Enterococcus sp.; Enterococcus avium (GC 4558)): 16 µg/mL (≈ 11.5 µM) | MIC Enterococcus faecalis (ATCC 29212) (Enterococcus sp.; Enterococcus faecalis (ATCC 29212)): 16 µg/mL (≈ 11.5 µM) | MIC Enterococcus faecalis (GC 4553) (Enterococcus sp.; Enterococcus faecalis (GC 4553)): 16 µg/mL (≈ 11.5 µM) | MIC Enterococcus faecalis (GC 4554) (Enterococcus sp.; Enterococcus faecalis (GC 4554)): 32 µg/mL (≈ 23 µM) | MIC Enterococcus faecium (GC 2243) (Enterococcus sp.; Enterococcus faecium (GC 2243)): 16 µg/mL (≈ 11.5 µM) | MIC Enterococcus faecium (GC 4556) (Enterococcus sp.; Enterococcus faecium (GC 4556)): 16 µg/mL (≈ 11.5 µM) | MIC Enterococcus faecium (GC 4557) (Enterococcus sp.; Enterococcus faecium (GC 4557)): 4 µg/mL (≈ 2.87 µM) | MIC Escherichia coli (GC 4559) (Escherichia coli [2]; Escherichia coli (GC 4559)): >64 µg/mL | MIC Escherichia coli (GC 4560) (Escherichia coli [2]; Escherichia coli (GC 4560)): 2 µg/mL (≈ 1.44 µM)
Compound: CC(C)CCC(=O)OC1C(OC2C(CO)OC(Oc3ccc(CC4NC(=O)C(C(C)c5ccccc5)NC(=O)CNC(=O)C(CO)NC(=O)C(C(O)C5CNC(=N)N5C5OC(CO)C(O)C(O)C5O)NC(=O)C(C(O)C5CNC(=N)N5)NC4=O)cc3)C(O)C2O)OC(CO)C(O)C1O (stereo not drawn) [Example 270a, Cyclo[glycyl-β-methylphenylalanyl-O-[4-O-[2-O-(4-methylpentanoyl)hexopyranosyl]-hexopyranosyl]tyrosyl-3-(2-iminoimidazolidin-4-yl)seryl-3-(3-hexopyranosyl-2-iminoimidazolidin-4-yl)serylseryl]]
MIC Staphylococcus haemolyticus (GC 4546) (Staphylococcus sp.): 2 µg/mL (≈ 1.44 µM) | MIC Staphylococcus haemolyticus (GC 4546) (Staphylococcus sp.; broth dilution): 2 µg/mL (≈ 1.44 µM)
